Measured values reported in ChEMBL document CHEMBL5608163, “Structure modification of anoplin for fighting resistant bacteria” (Eur J Med Chem, 2024).

Tests used:
[1] = Hemolytic activity against Red blood cells (unknown origin) incubated for 1 hr by spectrophotometric analysis; format: toxicity, cell-based, Erythrocyte
Bacillus subtilis [2] = test: Antimicrobial activity against Bacillus subtilis assessed as reduction in microbial growth measured after 18 to 20 hrs by Mueller-Hinton broth based two-fold serial dilution method; format: functional; settings: time 18-20 hrs
Escherichia coli [3] = test: Antibacterial activity against wild type Escherichia coli MG1655 assessed as reduction in bacterial growth incubated for 18 to 24 hrs by broth micro-dilution method; format: functional; settings: time 18-24 hrs
Staphylococcus aureus [4] = test: Antibacterial activity against Staphylococcus aureus ATCC 25923 assessed as reduction in bacterial growth measured after 24 hrs by Mueller-Hinton broth based two-fold serial dilution method; format: functional
Escherichia coli [5] = test: Antibacterial activity against Escherichia coli ATCC 25922 assessed as reduction in bacterial growth measured after 24 hrs by Mueller-Hinton broth based two-fold serial dilution method; format: functional
Staphylococcus aureus [6] = test: Antibacterial activity against Staphylococcus aureus ATCC 29213 assessed as bacterial growth inhibition measured for 18 hrs by CLSI-protocol based Mueller-Hinton Broth micro-dilution assay; format: functional
Staphylococcus aureus [7] = test: Antibacterial activity against methicillin-resistant Staphylococcus aureus ATCC BAA1720 assessed as bacterial growth inhibition measured for 18 hrs by CLSI-protocol based Mueller-Hinton Broth micro-dilution assay; format: functional
Bacillus subtilis [8] = test: Antibacterial activity against Bacillus subtilis 168 assessed as bacterial growth inhibition measured for 18 hrs by CLSI-protocol based Mueller-Hinton Broth micro-dilution assay; format: functional
Escherichia coli [9] = test: Antibacterial activity against Escherichia coli K12 assessed as bacterial growth inhibition measured for 18 hrs by CLSI-protocol based Mueller-Hinton Broth micro-dilution assay; format: functional
Escherichia coli [10] = test: Antibacterial activity against Escherichia coli MG1655 assessed as bacterial growth inhibition measured for 18 hrs by CLSI-protocol based Mueller-Hinton Broth micro-dilution assay; format: functional
Pseudomonas aeruginosa [11] = test: Antibacterial activity against Pseudomonas aeruginosa PAO1 assessed as bacterial growth inhibition measured for 18 hrs by CLSI-protocol based Mueller-Hinton Broth micro-dilution assay; format: functional
Pseudomonas aeruginosa [12] = test: Antibacterial activity against Pseudomonas aeruginosa ATCC 27853 assessed as bacterial growth inhibition measured for 18 hrs by CLSI-protocol based Mueller-Hinton Broth micro-dilution assay; format: functional
Salmonella typhimurium = test: Antibacterial activity against Salmonella enterica subsp. enterica serovar Typhimurium LT2 assessed as bacterial growth inhibition measured for 18 hrs by CLSI-protocol based Mueller-Hinton Broth micro-dilution assay; format: functional
Erythrocyte = test: Hemolytic activity in sheep RBC incubated for 30 mins; format: toxicity, cell-based, Ovis aries; settings: 0.5 h
Staphylococcus aureus [13] = test: Antibacterial activity against Staphylococcus aureus assessed as bacterial growth inhibition incubated for 20 hrs by broth microdilution assay; format: functional
Bacillus subtilis [14] = test: Antibacterial activity against Bacillus subtilis assessed as reduction in bacterial growth incubated for 20 hrs by broth microdilution assay; format: functional
Escherichia coli [15] = test: Antibacterial activity against Escherichia coli assessed as reduction in bacterial growth incubated for 20 hrs by broth microdilution assay; format: functional
Pseudomonas aeruginosa [16] = test: Antibacterial activity against Pseudomonas aeruginosa assessed as reduction in bacterial growth incubated for 20 hrs by broth microdilution assay; format: functional

CC.CC[C@H](C)[C@H](NC(=O)[C@H](CCCNC(=N)N)NC(=O)[C@H](CCCCN)NC(=O)[C@H](CC(C)C)NC(=O)[C@H](CC(C)C)NC(=O)CN)C(=O)N[C@@H](CCCCN)C(=O)N[C@H](C(=O)N[C@@H](CC(C)C)C(=O)N[C@@H](CC(C)C)C(N)=O)[C@@H](C)O
HC50 at 1 h [1]: > 400 µM | MIC (Bacillus subtilis [2]): 16 µM | MIC (Escherichia coli [3]): 32 µM | MIC (Staphylococcus aureus [4]): 11.3 µM | MIC (Escherichia coli [5]): > 22.6 µM | MIC (Staphylococcus aureus [6]): ≥ 64 µM | MIC (Staphylococcus aureus [7]): ≥ 64 µM | MIC (Bacillus subtilis [8]): 16 µM | MIC (Escherichia coli [9]): 32 µM | MIC (Escherichia coli [10]): 32 µM | MIC (Pseudomonas aeruginosa [11]): 16 µM | MIC (Pseudomonas aeruginosa [12]): 32 µM | MIC (Salmonella typhimurium): 64 µM | HC10 (Erythrocyte): > 64 µM | MIC (Staphylococcus aureus [13]): 64 µM | MIC (Bacillus subtilis [14]): 32 µM | MIC (Escherichia coli [15]): 64 µM | MIC (Pseudomonas aeruginosa [16]): 32 µM
